# From ChEMBL document CHEMBL4043168, “The design and SAR of a novel series of 2-aminopyridine based LRRK2 inhibitors” (Bioorg Med Chem Lett, 2017)
# Assays:
# [1] = target: Cyclin-dependent kinase 2 (Homo sapiens) (UniProt P24941); assay: Inhibition of CDK2 labeling at conserved Lys1 (LTGEVVALKK) in human PBMC at 1 uM
# [2] = target: Serine/threonine-protein kinase/endoribonuclease IRE1 (Homo sapiens) (UniProt O75460); assay: Inhibition of IRE1 conserved Lys2 (DLKPHNILISMPNAHGK) in human PBMC at 1 uM
# [3] = target: T1, Tyrosine-protein kinase JAK3 (Homo sapiens) (UniProt P52333); assay: Inhibition of JAK3 domain2 conserved Lys1 (YDPLGDNTGALVAVKQLQHSGPDQQR) in human PBMC at 1 uM
# T1 sequence (whole entry): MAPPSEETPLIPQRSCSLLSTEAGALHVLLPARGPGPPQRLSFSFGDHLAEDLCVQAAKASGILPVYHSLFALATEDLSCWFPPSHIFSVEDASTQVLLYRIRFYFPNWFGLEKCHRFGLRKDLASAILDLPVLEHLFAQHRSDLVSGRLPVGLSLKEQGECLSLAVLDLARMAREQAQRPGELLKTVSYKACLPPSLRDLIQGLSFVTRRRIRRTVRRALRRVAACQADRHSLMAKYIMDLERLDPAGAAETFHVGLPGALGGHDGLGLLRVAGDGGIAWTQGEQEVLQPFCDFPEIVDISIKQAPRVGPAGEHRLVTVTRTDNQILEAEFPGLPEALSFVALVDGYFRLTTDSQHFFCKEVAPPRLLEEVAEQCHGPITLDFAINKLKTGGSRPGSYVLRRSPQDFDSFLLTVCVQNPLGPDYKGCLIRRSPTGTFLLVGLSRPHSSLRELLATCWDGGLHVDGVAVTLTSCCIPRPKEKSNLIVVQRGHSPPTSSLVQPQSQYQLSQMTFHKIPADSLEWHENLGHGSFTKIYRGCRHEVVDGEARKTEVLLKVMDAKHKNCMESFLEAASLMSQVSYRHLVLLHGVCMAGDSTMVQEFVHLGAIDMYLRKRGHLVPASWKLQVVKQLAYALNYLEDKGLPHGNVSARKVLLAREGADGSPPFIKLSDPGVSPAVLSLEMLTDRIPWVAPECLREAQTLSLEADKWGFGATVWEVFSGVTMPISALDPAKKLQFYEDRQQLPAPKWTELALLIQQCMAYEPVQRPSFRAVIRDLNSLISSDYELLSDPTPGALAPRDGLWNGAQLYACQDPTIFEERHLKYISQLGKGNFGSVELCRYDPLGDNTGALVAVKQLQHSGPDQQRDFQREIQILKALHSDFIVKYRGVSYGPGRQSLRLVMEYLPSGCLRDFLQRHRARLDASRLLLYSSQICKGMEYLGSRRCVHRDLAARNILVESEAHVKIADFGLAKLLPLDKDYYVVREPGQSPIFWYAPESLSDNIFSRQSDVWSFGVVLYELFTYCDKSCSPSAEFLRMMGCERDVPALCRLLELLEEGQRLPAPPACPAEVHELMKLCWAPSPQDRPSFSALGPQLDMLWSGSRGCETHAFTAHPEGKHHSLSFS
# [4] = target: 5'-AMP-activated protein kinase catalytic subunit alpha-1 (Homo sapiens) (UniProt Q13131); assay: Inhibition of AMPKa1 labeling at conserved Lys1 (VAVKILNR) in human PBMC at 0.1 uM
# [5] = target: Calcium/calmodulin-dependent protein kinase type II subunit gamma (Homo sapiens) (UniProt Q13555); assay: Inhibition of CaMK2g labeling at conserved Lys1 (TSTQEYAAKIINTK) in human PBMC at 0.1 uM
# [6] = target: T2, Inhibitor of nuclear factor kappa-B kinase subunit epsilon (Homo sapiens) (UniProt Q14164); assay: Inhibition of IKKe conserved Lys1 (SGELVAVKVFNTTSYLRPR) in human PBMC at 0.1 uM
# T2 sequence (whole entry): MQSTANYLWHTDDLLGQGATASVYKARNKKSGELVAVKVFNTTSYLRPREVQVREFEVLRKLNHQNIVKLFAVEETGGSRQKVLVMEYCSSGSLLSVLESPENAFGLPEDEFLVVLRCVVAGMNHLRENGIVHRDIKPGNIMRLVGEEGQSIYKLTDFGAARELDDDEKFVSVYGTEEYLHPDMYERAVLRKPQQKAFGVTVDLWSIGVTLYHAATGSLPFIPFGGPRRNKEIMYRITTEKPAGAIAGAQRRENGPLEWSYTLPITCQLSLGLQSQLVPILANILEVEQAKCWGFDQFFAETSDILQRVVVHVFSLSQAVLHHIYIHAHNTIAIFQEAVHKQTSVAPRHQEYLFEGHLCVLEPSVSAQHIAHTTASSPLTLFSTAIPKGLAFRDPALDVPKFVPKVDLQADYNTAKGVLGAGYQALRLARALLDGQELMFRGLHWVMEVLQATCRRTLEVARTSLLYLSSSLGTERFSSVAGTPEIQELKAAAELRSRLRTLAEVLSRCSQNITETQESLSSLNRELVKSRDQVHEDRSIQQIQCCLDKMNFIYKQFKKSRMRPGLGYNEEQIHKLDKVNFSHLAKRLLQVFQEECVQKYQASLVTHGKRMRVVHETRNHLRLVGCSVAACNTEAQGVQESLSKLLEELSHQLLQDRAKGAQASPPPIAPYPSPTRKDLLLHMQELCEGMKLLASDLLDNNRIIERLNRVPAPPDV
# [7] = target: Mitogen-activated protein kinase kinase kinase 15 (Homo sapiens) (UniProt Q6ZN16); assay: Inhibition of MAP3K15 conserved Lys1 (IAIKEIPER) in human PBMC at 0.1 uM
# [8] = target: Serine/threonine-protein kinase 26 (Homo sapiens) (UniProt Q9P289); assay: Inhibition of MST4 conserved Lys2 (DIKAANVLLSEQGDVK) in human PBMC at 0.1 uM
# [9] = target: Ribosomal protein S6 kinase alpha-1 (Homo sapiens) (UniProt Q15418); assay: Inhibition of RSK1 domain1 activation Loop (LTDFGLSKEAIDHEKK) in human PBMC at 0.1 uM
# [10] = target: T3, STE20-related kinase adapter protein alpha (Homo sapiens) (UniProt Q7RTN6); assay: Inhibition of STLK5 activation loop (YSVKVLPWLSPEVLQQNLQGYDAK) in human PBMC at 0.1 uM
# T3 sequence (whole entry): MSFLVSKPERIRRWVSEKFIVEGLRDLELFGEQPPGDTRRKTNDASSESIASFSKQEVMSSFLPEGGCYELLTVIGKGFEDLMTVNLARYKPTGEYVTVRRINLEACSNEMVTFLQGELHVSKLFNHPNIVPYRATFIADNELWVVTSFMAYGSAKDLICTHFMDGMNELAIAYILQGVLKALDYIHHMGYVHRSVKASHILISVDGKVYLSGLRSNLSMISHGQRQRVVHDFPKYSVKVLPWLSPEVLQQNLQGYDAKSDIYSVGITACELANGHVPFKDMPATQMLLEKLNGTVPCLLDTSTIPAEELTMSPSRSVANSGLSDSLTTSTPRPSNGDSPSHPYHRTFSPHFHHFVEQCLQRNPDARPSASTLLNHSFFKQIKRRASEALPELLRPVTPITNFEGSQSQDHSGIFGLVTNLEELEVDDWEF
# Calcium/calmodulin-dependent protein kinase type II subunit gamma (Homo sapiens), sequence (Q13555 whole entry): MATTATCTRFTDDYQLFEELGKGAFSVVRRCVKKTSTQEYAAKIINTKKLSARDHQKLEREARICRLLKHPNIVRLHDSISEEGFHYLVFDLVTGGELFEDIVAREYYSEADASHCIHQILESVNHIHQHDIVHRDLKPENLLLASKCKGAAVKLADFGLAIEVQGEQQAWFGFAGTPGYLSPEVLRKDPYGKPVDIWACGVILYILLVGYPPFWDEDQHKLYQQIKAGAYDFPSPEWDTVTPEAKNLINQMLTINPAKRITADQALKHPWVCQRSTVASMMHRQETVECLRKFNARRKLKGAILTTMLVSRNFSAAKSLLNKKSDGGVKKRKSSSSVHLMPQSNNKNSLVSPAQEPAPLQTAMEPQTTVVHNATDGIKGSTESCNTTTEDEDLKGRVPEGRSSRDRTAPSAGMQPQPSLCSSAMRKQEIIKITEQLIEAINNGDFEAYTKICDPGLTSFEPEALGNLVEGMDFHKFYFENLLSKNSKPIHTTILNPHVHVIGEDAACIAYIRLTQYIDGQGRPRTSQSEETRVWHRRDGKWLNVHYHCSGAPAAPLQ
# Serine/threonine-protein kinase/endoribonuclease IRE1 (Homo sapiens), sequence (O75460 19-977 limits assumed): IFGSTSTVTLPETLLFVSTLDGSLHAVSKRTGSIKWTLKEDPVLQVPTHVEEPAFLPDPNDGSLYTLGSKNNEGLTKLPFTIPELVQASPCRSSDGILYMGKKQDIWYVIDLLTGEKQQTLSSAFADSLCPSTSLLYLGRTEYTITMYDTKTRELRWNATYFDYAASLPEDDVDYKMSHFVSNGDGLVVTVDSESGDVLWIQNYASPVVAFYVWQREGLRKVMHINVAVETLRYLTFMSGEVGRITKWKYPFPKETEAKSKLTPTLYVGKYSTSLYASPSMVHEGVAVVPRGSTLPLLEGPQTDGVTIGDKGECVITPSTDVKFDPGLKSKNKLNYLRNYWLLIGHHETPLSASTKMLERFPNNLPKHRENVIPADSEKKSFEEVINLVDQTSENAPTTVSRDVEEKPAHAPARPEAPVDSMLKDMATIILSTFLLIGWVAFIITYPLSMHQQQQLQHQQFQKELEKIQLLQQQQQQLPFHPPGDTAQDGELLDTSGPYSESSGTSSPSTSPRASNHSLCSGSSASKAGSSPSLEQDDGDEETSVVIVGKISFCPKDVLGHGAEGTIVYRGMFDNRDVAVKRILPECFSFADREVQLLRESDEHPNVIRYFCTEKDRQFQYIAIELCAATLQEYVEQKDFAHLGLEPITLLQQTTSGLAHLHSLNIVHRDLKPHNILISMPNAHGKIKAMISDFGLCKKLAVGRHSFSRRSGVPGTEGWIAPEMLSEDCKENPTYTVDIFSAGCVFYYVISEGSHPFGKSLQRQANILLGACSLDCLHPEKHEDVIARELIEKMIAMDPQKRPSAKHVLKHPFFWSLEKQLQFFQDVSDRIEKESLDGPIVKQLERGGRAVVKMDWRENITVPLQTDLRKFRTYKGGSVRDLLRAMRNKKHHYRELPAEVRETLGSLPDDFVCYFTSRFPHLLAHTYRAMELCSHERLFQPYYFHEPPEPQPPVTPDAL
# Serine/threonine-protein kinase 26 (Homo sapiens), sequence (Q9P289 2-416 limits assumed): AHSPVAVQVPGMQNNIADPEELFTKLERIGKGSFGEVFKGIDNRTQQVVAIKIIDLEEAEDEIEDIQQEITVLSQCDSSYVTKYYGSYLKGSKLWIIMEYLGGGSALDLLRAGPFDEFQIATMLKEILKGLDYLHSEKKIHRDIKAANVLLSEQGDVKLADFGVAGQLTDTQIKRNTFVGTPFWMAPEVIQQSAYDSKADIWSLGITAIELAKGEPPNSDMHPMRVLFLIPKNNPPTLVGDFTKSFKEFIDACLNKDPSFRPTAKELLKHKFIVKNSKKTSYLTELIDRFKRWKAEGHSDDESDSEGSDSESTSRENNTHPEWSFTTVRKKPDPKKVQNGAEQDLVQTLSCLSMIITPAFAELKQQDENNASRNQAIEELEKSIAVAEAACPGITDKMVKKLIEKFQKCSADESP
# Ribosomal protein S6 kinase alpha-1 (Homo sapiens), sequence (Q15418 whole entry, the tested form may be a part): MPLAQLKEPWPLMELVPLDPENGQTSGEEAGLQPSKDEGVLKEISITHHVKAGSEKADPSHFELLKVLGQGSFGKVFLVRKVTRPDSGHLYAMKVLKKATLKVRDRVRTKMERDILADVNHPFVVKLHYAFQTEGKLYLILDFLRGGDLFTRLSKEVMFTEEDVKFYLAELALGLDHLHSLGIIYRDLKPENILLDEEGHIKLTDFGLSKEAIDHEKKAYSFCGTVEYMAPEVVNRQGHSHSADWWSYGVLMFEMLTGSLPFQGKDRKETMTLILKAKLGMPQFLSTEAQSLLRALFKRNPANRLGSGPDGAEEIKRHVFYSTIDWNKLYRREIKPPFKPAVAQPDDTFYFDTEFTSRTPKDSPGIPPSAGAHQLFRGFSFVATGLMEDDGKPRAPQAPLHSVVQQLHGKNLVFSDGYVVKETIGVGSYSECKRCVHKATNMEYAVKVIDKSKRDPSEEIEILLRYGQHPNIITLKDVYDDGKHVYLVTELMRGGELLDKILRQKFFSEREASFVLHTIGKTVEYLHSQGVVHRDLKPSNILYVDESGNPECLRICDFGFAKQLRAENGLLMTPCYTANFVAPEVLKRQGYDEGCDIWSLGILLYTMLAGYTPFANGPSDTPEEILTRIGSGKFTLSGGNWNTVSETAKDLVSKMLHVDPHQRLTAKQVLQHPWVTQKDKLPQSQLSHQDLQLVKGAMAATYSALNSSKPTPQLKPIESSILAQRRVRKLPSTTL
# 5'-AMP-activated protein kinase catalytic subunit alpha-1 (Homo sapiens), sequence (Q13131 whole entry, looked up): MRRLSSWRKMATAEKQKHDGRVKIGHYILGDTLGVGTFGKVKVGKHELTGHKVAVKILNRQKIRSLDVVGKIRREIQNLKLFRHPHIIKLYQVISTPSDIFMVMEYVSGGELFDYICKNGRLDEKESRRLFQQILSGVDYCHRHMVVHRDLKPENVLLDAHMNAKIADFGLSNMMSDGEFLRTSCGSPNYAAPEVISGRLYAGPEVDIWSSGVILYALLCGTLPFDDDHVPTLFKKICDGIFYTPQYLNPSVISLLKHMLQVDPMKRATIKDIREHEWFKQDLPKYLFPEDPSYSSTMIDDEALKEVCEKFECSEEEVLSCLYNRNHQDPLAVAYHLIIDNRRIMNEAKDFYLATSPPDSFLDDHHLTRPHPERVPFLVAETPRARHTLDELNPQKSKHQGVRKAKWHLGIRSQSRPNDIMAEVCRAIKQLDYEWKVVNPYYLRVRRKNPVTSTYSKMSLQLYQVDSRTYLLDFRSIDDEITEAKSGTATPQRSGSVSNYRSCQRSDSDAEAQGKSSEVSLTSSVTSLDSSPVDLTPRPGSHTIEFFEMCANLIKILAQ
# Mitogen-activated protein kinase kinase kinase 15 (Homo sapiens), sequence (Q6ZN16 whole entry): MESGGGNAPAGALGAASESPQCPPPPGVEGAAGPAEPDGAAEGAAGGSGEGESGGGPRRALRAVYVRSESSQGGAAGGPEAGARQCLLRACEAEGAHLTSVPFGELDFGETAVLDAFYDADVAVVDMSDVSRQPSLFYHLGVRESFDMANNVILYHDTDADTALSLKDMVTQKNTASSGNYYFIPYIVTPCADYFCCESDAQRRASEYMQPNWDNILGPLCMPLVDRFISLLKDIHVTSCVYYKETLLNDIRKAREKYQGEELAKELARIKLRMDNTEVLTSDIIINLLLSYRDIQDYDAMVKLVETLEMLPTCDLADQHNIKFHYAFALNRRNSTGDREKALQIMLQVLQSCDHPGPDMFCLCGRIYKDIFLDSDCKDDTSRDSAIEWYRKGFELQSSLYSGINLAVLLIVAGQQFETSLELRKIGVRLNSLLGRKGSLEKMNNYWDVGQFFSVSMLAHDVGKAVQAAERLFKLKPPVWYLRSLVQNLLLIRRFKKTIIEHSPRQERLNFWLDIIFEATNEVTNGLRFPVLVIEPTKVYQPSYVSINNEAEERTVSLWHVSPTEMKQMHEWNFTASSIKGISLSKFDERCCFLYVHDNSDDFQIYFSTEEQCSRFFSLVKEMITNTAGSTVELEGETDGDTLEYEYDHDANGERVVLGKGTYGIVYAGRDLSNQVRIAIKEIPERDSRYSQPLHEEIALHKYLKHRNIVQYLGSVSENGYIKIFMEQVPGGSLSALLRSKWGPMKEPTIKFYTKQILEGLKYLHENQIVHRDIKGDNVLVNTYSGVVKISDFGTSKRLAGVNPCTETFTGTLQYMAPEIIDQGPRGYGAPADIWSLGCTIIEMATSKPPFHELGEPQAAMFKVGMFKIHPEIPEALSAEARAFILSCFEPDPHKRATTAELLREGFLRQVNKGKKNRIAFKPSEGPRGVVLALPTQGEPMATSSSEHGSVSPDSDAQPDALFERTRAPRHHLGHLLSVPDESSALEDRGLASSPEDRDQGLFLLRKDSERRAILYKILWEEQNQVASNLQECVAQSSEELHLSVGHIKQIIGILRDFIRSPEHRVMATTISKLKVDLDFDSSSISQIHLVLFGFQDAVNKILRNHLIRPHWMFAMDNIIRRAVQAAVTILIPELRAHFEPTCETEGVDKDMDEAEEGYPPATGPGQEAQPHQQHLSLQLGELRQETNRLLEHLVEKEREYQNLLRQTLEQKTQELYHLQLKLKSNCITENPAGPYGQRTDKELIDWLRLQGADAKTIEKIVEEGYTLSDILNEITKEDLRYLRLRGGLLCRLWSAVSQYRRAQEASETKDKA
smiles,measurement,setting,value
CC(C)n1cc(-c2cc(-c3ccc(CN4CCOCC4)cc3)cnc2N)nn1,inhibition,[1],11.3%
same,inhibition,[2],26.6%
same,inhibition,[3],-0.9%
same,inhibition,[4],7.7%
same,inhibition,[5],-4.5%
same,inhibition,[6],6.2%
same,inhibition,[7],-0.5%
same,inhibition,[8],0.5%
same,inhibition,[9],17.2%
same,inhibition,[10],-9.8%
